Several values for one entry are separate records, joined by “and”; a condition that tells them apart may be missing. Identical values can stand only once. Activity calls are given as the source filed them.
Legend:
[1] = target: 5-hydroxytryptamine receptor 1A (Homo sapiens, UniProt P08908); format: functional
[2] = target: Solute carrier family 12 member 2/member 5 (Homo sapiens, UniProt P55011+Q9H2X9); experiment: KCC2 and NKCC1 inhibition by rubidium flux, cell-based, NKCC1 counter-screen (AID 1734); format: functional, HEK293
[3] = viability loss of HPDE-C7K cells – cell-based, fluorescence, HTS, primary screen (AID 431); format: functional; details: Homo sapiens
[4] = viability loss in CEM21 cells – cell-based, plate reader, dry powder, cytotoxicity control, dose response (AID 687026); format: functional
[5] = blockers of HIV-1 ZM109 envelope-driven cell-cell fusion – HeLa effector, CEM target cells, luciferase, cherry-pick, dose response (AID 652058); format: functional, cell-based;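 further: luciferase signal from HIV-1 Env mediated cell-cell fusion of effector and target cells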
[6] = inhibition of Env-driven cell fusion – HIV entry, plate reader, dry powder, dose response (AID 687023); format: functional, cell-based
[7] = target: T1, Sphingosine 1-phosphate receptor 2 (Homo sapiens, UniProt O95136); experiment: Dose Response Cell Based Assay for Antagonists of the S1P2 Receptor. [Related pubchem assays: 856, 736 ]; format: functional
[8] = blockers of HIV-1 envelope-mediated cell-cell fusion – cherry-pick, dose response (AID 652057); format: functional, cell-based
[9] = HPDE-C7 pancreatic duct cell viability loss – fluorescence, HTS (AID 430); format: functional, cell-based; details: Homo sapiens
[10] = tested on: INS1; experiment: INS-1E survival protection against cytokine death – cell-based, luminescence, retest, dose response (AID 449756); format: functional; details: Rattus norvegicus;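 further: cell death triggered by IL-1 beta plus TNF-alpha plus IFN-gamma mixture; protective hits raise ATP signal compared with cytokine alone wells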
[11] = HIV-1 AD8 envelope cell-cell fusion blockers – cherry-pick, dose response (AID 652062); format: functional, cell-based;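 further: luciferase signal from cell-cell fusion driven by HIV-1 clade B AD8 Env; potency is for inhibitors of fusion seen as a drop in luminescence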
[12] = viability loss in CEM21 cells – cell-based, CellTiter-Glo luminescence, cherry-picked, cytotoxicity control for viral fusion inhibitor project, dose response (AID 652042); format: functional;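 further: potency for signal decrease meaning cytotoxicity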
[13] = target: T2, COUP transcription factor 2 (Homo sapiens, UniProt P24468); experiment: Luminescence-based cell-based high throughput dose response assay to identify inhibitors of COUP-TFII (NR2F2).; format: functional;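 further: HEK293 cells transiently cotransfected with COUP-TFII expression vector and reporter; luciferase reporter luminescence driven by COUP-TFII from the pX2-168 reporter plasmid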
T2 sequence (P24468 whole entry): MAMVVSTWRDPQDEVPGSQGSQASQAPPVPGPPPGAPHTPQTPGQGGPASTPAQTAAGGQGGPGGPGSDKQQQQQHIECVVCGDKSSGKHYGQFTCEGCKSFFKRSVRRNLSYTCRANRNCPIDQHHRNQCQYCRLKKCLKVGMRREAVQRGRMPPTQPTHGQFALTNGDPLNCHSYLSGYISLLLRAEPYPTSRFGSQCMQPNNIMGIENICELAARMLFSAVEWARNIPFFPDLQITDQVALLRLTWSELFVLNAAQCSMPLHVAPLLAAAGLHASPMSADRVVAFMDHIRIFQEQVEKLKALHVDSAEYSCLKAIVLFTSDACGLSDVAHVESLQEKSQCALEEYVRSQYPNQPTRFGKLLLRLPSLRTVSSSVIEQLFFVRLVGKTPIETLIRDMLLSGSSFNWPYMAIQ

[14] = target: Sphingosine 1-phosphate receptor 1 (Homo sapiens, UniProt P21453); experiment: Dose Response Cell-Based Assay for Agonists of the Sphingosine 1-Phosphate Receptor 1 (S1P1): Purchased Analogues. [Related pubchem assays: 1192, 373, 439 ]; format: functional
[15] = target: Sphingosine 1-phosphate receptor 3 (Homo sapiens, UniProt Q99500); experiment: Dose Response Cell-Based Assay for Agonists of the Sphingosine 1-Phosphate Receptor 3 (S1P3): Purchased Analogues. [Related pubchem assays: 373, 439 ]; format: functional
[16] = target: T1, Sphingosine 1-phosphate receptor 2; experiment: Dose Response Cell-Based Assay for Agonists of the Sphingosine 1-Phosphate Receptor 2 (S1P2): Purchased Analogues. [Related pubchem assays: 1192, 373, 439 ]; format: functional
[17] = target: Voltage-gated inwardly rectifying potassium channel KCNH2 (Homo sapiens, UniProt Q12809); experiment: concentration-dependent hERG rescue from blockers – cell-based, thallium flux, dose response (AID 2121); format: ADME
[18] = target: T3, Rac GTPase-activating protein 1 (Homo sapiens, UniProt Q9H0H5); experiment: blockers of MgcRacGAP-driven Rac1 GTP hydrolysis – biochemical, ADP Hunter fluorescence, primary and confirmatory, confirmation (AID 624330); format: functional
T3 sequence (Q9H0H5 whole entry): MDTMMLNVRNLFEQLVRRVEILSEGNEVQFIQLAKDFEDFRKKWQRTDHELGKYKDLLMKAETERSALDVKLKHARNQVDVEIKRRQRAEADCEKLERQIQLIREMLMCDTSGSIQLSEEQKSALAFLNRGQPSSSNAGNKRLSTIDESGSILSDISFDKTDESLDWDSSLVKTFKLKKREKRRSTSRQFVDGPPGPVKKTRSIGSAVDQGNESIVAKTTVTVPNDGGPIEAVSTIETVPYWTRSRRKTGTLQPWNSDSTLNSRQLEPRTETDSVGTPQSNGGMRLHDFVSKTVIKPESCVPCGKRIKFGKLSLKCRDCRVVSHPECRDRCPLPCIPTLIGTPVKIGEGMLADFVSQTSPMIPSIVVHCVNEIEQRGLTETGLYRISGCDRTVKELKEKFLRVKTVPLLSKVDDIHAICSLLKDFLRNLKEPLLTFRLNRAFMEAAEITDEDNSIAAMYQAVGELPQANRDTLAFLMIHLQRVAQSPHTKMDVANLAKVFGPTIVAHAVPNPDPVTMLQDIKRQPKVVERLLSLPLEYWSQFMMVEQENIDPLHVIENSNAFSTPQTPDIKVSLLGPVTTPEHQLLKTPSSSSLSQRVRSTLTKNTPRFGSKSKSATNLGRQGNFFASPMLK

[19] = target: T4, Neuropeptide Y receptor type 2 (Homo sapiens, UniProt P49146); experiment: IC50 for human NPY-Y2 blockade – cell-based, counter-screen for NPY-Y1 antagonist project, dose response (AID 1278); format: functional
T4 sequence (P49146 whole entry): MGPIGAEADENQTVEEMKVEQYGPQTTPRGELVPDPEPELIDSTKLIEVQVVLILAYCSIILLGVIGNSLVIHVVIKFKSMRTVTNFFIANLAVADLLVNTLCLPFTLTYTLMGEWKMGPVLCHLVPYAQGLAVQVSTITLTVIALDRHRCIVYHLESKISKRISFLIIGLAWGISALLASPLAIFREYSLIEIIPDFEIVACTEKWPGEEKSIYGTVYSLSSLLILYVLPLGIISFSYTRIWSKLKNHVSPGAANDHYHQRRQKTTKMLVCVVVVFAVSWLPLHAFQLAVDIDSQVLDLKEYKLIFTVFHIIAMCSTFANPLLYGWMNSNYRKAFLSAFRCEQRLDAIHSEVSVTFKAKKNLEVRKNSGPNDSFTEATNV

[20] = target: Cytochrome P450 2D6 (Homo sapiens, UniProt P10635);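 further: CYP2D6 member of a cytochrome P450 panel assay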
[21] = target: Cytochrome P450 3A4 (Homo sapiens, UniProt P08684);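 further: CYP3A4 tested as one member of a cytochrome P450 panel screen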
[22] = target: Aryl hydrocarbon receptor (Homo sapiens, UniProt P35869); experiment: Luminescence-based cell-based high throughput dose response assay for activators of the Aryl Hydrocarbon Receptor (AHR). [Related pubchem assays: 2796 (Primary screen (AHR activators in singlicate)), 2845 (Confirmation screen (AHR activators in triplicate)), 434939 (Counterscreen (PXR activators in triplicate)), 2804 (Summary (AHR activators))]; format: ADME
[23] = target: T5, NADPH oxidase 1 (Homo sapiens, UniProt Q9Y5S8); experiment: Late-stage luminescence-based cell-based dose response assay to identify inhibitors of NADPH oxidase 1 (NOX1): Purchased analogs 2.; format: functional
[24] = IC50 of Artemis nuclease activity blockers – biochemical, fluorescence intensity, dose response (AID 720701); format: functional;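 further: Artemis endonuclease enzyme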
[25] = target: Serine/threonine-protein phosphatase PP1-alpha catalytic subunit (Homo sapiens, UniProt P62136); experiment: inhibition of protein phosphatase 1 activity – biochemical, fluorescence, dose response (AID 2394)
[26] = target: Serine/threonine-protein phosphatase (Homo sapiens, UniProt Q9BPW0); experiment: inhibition of protein phosphatase 5 activity – biochemical, fluorescence, dose response (AID 2395)
[27] = target: T5, NADPH oxidase 1; format: functional, cell-based

T5 sequence (Q9Y5S8 whole entry): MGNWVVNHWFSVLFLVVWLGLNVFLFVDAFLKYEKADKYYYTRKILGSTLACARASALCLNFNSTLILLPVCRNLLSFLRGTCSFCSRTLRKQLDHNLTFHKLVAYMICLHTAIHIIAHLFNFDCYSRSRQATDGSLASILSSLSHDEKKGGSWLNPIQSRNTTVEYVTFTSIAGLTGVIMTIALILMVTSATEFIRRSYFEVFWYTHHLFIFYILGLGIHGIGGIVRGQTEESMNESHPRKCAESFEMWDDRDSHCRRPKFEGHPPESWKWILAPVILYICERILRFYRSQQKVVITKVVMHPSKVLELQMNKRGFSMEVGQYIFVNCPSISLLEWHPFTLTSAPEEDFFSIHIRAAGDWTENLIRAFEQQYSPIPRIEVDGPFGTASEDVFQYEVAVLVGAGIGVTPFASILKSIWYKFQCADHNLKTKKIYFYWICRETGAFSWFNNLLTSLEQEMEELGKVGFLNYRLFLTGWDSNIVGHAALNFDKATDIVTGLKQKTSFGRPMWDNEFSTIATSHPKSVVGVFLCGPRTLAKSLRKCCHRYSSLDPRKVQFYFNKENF
T1 sequence (O95136 whole entry, the tested form may be a part): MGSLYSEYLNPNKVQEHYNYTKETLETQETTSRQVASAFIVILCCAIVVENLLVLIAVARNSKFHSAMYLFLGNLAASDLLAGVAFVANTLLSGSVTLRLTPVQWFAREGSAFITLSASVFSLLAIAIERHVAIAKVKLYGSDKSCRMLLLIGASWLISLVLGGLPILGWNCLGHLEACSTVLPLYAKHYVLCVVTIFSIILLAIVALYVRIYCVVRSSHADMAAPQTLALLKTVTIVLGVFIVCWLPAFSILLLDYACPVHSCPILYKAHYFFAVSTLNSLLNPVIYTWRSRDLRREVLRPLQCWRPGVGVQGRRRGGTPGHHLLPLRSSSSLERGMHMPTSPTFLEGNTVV
Sequence of Serine/threonine-protein phosphatase PP1-alpha catalytic subunit (P62136 whole entry): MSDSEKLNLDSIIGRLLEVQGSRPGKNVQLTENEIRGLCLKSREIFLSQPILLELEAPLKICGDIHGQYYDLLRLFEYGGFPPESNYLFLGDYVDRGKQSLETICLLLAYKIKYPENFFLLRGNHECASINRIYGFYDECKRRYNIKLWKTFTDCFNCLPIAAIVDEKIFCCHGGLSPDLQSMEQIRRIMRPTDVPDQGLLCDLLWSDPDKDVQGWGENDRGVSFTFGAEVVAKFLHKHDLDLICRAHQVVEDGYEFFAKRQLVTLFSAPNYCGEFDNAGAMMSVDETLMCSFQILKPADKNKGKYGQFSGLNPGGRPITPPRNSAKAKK
Sequence of Serine/threonine-protein phosphatase (Q9BPW0 whole entry): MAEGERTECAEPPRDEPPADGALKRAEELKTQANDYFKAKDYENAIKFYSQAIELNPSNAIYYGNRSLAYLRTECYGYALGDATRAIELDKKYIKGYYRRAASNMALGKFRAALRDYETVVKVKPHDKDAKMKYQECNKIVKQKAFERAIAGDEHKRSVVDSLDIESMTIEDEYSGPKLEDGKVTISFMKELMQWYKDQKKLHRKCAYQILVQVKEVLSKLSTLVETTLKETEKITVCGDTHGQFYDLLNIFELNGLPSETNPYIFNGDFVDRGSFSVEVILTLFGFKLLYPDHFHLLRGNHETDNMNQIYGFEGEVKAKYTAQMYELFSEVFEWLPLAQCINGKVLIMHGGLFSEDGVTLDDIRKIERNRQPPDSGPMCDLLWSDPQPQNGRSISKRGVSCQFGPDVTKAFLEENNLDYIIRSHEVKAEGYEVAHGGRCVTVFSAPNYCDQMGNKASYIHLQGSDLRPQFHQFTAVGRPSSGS
Sequence of Aryl hydrocarbon receptor (P35869 whole entry): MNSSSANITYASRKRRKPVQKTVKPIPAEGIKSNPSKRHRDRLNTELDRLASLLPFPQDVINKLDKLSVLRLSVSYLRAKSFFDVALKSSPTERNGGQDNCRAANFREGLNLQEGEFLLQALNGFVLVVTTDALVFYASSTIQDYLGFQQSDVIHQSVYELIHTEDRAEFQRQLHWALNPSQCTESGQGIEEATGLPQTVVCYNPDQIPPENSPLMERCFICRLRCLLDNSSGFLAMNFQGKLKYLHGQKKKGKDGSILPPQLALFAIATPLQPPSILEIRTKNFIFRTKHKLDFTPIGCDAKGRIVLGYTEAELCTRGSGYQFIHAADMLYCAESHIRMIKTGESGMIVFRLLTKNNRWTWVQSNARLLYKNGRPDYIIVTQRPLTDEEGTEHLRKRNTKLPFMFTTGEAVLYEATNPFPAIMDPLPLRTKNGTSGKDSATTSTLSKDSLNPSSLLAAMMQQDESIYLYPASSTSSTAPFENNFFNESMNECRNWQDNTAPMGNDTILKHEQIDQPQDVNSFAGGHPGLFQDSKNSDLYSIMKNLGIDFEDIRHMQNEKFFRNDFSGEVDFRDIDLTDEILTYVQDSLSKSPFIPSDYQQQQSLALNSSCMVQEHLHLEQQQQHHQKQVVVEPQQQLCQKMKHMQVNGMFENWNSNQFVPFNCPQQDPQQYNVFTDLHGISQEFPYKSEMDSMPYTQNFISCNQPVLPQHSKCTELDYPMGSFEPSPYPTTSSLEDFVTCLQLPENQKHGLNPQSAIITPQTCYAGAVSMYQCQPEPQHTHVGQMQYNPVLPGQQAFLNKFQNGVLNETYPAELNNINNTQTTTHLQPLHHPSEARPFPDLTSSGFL
Sequence of Sphingosine 1-phosphate receptor 3 (Q99500 whole entry): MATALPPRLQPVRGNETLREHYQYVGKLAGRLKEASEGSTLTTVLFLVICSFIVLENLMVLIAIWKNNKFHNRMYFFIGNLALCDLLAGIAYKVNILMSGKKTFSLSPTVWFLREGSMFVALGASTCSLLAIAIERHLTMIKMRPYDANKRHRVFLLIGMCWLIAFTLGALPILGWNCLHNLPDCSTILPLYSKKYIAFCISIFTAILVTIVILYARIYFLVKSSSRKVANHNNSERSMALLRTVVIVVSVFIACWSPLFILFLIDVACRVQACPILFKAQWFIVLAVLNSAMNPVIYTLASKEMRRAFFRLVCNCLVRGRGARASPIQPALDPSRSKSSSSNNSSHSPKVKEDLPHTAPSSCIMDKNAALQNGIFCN
Sequence of Cytochrome P450 3A4 (P08684 whole entry): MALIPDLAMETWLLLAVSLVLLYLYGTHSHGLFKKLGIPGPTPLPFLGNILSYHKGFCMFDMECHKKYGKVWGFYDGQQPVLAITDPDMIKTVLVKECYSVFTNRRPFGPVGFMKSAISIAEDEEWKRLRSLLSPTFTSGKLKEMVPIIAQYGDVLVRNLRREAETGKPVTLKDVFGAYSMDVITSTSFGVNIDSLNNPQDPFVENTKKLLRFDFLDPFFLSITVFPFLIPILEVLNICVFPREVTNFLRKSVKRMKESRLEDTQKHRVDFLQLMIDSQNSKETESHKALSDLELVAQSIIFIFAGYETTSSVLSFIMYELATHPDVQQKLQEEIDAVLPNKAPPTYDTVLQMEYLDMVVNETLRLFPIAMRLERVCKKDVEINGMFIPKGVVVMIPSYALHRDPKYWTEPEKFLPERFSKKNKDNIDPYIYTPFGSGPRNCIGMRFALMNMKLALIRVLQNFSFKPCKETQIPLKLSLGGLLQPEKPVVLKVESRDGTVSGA
Sequence of Sphingosine 1-phosphate receptor 1 (P21453 whole entry): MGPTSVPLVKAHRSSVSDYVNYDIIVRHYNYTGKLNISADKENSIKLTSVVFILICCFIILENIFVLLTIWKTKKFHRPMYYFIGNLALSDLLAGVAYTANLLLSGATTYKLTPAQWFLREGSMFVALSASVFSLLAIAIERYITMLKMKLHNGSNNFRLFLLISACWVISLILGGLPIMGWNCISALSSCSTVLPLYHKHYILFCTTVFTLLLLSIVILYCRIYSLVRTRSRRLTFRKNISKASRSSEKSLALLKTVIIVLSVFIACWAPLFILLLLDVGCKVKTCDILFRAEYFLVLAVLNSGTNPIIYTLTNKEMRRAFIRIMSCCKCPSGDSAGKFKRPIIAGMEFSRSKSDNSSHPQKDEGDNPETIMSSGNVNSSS
Sequence of Voltage-gated inwardly rectifying potassium channel KCNH2 (Q12809 whole entry): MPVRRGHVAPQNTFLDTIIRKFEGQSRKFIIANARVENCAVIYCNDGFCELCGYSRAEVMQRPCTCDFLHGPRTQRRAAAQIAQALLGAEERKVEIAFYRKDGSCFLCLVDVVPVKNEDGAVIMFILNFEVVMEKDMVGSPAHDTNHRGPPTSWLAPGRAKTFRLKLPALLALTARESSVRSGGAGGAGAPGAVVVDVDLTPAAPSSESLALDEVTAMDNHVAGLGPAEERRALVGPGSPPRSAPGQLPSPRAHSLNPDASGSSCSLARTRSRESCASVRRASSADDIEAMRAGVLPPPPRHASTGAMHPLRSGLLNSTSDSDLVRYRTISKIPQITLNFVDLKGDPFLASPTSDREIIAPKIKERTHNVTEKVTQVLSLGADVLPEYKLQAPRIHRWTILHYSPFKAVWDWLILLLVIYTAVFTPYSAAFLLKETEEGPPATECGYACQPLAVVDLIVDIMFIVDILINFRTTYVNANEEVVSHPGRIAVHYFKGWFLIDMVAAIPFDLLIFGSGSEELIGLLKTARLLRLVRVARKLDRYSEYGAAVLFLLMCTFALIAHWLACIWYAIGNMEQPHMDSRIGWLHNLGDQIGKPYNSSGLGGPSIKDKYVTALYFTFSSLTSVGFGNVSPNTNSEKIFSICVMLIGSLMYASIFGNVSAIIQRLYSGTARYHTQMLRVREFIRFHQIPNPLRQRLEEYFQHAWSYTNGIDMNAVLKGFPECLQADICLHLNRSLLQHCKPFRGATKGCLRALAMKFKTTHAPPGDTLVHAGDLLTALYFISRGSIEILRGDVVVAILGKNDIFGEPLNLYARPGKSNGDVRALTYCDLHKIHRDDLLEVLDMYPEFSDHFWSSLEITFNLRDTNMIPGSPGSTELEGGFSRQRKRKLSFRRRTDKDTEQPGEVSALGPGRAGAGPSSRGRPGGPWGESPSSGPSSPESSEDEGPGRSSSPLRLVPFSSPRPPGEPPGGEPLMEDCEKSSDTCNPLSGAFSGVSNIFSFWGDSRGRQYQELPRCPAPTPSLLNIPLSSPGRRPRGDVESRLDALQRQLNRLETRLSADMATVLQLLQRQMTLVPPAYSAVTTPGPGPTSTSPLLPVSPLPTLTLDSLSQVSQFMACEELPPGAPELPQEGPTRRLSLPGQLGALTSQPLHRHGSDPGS

## CCOC(=O)c1c(C)nc(-c2ccccc2)nc1NC(=O)CC
[1]
  EC50: > 50 µM (not active)

## Cc1cnc(NC(=O)CSc2nnc(Cc3ccccc3)o2)s1
[2]
  IC50: 19.7 µM (active)

## COc1ccc2c(c1)[nH]c1c(N3CCN(Cc4ccc5c(c4)OCO5)CC3)ncnc12
[3]
  EC50: 14.8 µM (active)
[4]
  AC50: 35.8 µM (active) and 32.4 µM (active)
[5]
  AC50: 6.42 µM (active)
[6]
  AC50: 2.72 µM (active) and 5.39 µM (active)
[7]
  IC50: 4.01 µM (active)
[8]
  AC50: 3.89 µM (active)
[9]
  EC50: 16.7 µM (active)
[10]
  AC50: 2.06 µM (active)
[11]
  AC50: 4.68 µM (active)
[12]
  AC50: 38 µM (active)
[13]
  IC50: 6.68 µM (active)

## CCC(C)NC(=O)c1cc(-c2ccc(C)cc2)on1 (stereo not drawn)
[14]
  EC50: > 50 µM (not active)
[15]
  EC50: > 50 µM (not active)
[16]
  EC50: > 10 µM (not active)

## O=[N+]([O-])c1ccccc1OCCNCc1ccccc1
[17]
  EC50: 4.78 µM (active)
[18]
  IC50: 153 µM (active)

## COc1cccc(Oc2c[nH]nc2-c2ccc(O)cc2O)c1
[19]
  IC50: > 35 µM (not active)
[18]
  IC50: 39.4 µM (active)

## Cc1cc(C)nc(Nc2ncc(O)n2-c2ccccc2)n1
[20]
  AC50: inconclusive
[21]
  AC50: inconclusive
[22]
  EC50: 9.35 µM (active)

## CC(=O)Nc1ccc(/C=N/Nc2ccccc2)cc1
[23]
  IC50: 6.22 µM (active)

## CCCN(CC1CC1)c1nc(N)c2c(N)nc(OC)cc2c1C#N
[24]
  IC50: > 20 µM (inactive)
[25]
  IC50: > 67 µM (not active)
[26]
  IC50: 9.67 µM (active)

## O=C(Oc1cccc([N+](=O)[O-])c1)c1sc2ccccc2c1Cl
[27]
  IC50: > 17 µM (not active)

From ChEMBL document CHEMBL1201862, “PubChem BioAssay data set” (2004)
